# Experimental data as given in US6458577B1, “Methods of culturing and assaying a virus in a specimen and compositions and cell lines for doing the same” (priority 1997, dated 2002).
# Several values for one entry are separate records, joined by “and”; a condition that tells them apart may be missing. Equal values may be shown once. Marks after values point to notes of the source that are not given here.
# Key:
# [1] = test system: CMV in mink lung cells (ATCC No. CCL64); assay: CMV shell vial culture in NaB-treated mink lung cells, immunofluorescent staining of IE antigen, count of stained nuclei; assay type: cell-based; conditions: for Treated: average # of nuclei staining from three shell vials: 80 mM sodium butyrate 24 hours before CMV infection; for Treated: average # of nuclei staining from three shell vials / counts of positive stained nuclei from 2 shell vials / # of Foci (average # of stained nuclei counted from three shell vials): mink lung; for counts of positive stained nuclei from 2 shell vials: 80 mM sodium butyrate 24 hours before infection; for # of Foci (average # of stained nuclei counted from three shell vials): 80 mM sodium butyrate; for # positive stained nuclei: average of four shell vials
# Description: (§1) Mink lung cells available from American Type Culture Collection ATTC No. CCL64 are provided. The cells are received in frozen vials from ATCC and are prepared by first thawing in a 37° C. water bath. The thawed cells are removed from the bath and cultured in a tissue culture flask with Opti MEM culture medium supplemented with 5% fetal calf serum and non-essential amino acids, available from Life Technologies, Inc., of Gaithersburg, Md., and the antibiotics penicillin (100 units/ml), streptomycin (100 μg/ml) and the fungizone amphotericin (0.25 μg/ml). The cultured cells reach a complete monolayer in about 3 to 4 days. The mink lung cells are propagated by trypsinization and approximately 2.5×10^5 dispersed cells per shell vial are seeded in shell vials with cover slips. The shell vials are incubated at 37° C. for 24 hours or until the cells form a monolayer.
# (§2) The cells were then treated with a 5 mM sodium butyrate (NaB) tissue culture solution, prepared by dissolving the appropriate amount of NaB in tissue culture media and filtering the solution, and incubated for 16 to 24 hours. After incubation the NaB and tissue culture media is removed and the treated cells are inoculated with 0.2 ml of CMV inoculum originally from a clinical specimen obtained from urine and prepared by putting the specimen into a viral transport medium containing Hank's buffer, 1% bovine albumin and the antibiotics penicillin (200 units/ml) and streptomycin (200 μg/ml) and the fungizone amphotericin (0.5 μg/ml). After inoculation the shell vials are centrifuged at 700×g for 45 minutes at 23° C. After centrifugation, 0.5 ml of fresh media is added to each vial and the vials are incubated at 37° C. for 16 to 24 hours. After incubation the media is removed and the cell layers are rinsed with phosphate buffered saline (PBS), fixed with cold acetone for 10 minutes, and rinsed again with PBS.
# After fixing, the cells are stained by adding 100 μl of CMV monoclonal antibody (mAb), incubated at 37° C. for 45 minutes and then rinsed with PBS. The CMV mAb used is E-13 monoclonal antibody against immediate early (IE) antigen of CMV. This antibody is used as a primary antibody in the first step of staining and is available from Accurated Chemical and Scientific Co., Westbury, N.Y. After the first staining step 100 μl of biotin which is conjugated with antimouse IgG is added followed by additional incubation at 37° C. for 45 minutes. The biotin complex is available from Boerhinger Mannheim Co., Indianapolis, Ind. The cells are rinsed again with PBS after incubation and then incubated with 100 μl of streptavidin conjugated with fluorescein isothiocyanate (FITC) for 45 minutes at 37° C. The streptavidin complex is also available from Boerhinger Mannheim Co., Indianapolis, Ind. After a final rinse with PBS, a coverslip removed from the shell vial is mounted on the slide which is then examined under a fluorescence equipped microscope manufactured in Germany by Carl Zeiss, Inc., and available from W. Nuhsbaum, McHenry, II. The specific apple-green stained nuclei were counted. The results are reported in Table 1 as positive stained nuclei as an average of four shell vials. […]
# These examples were prepared using the same procedure as Example 1, except that the concentration of NaB used was varied and both mink lung cells and MRC-5 cells were used. Also, the MRC-5 were treated with NaB before infection and 2 mM CaCl2, 1% DMSO and 10^−5M dexamethasone after infection. Table 3 indicates the concentration of NaB used and the results obtained. […]
# These examples used the same procedure as Example 1 for CMV growth except that the time of treatment with sodium butyrate was varied, i.e., the cells were treated with 80 mM sodium butyrate for different times before infection, and the MRC-5 cells were treated with 2 mM calcium chloride (CaCl2), 1% dimethyl sulfoxide (DMSO) and 10^−5M dexamethasone after infection.
# [2] = test system: HSV-1 in mink lung cells; assay: HSV-1 shell vial culture in NaB-treated mink lung cells, foci of cytopathic effect under light microscope; assay type: cell-based; conditions: for cpe = foci of cytopathic effect: mink lung cells, average of two shell vials
# Description: as §1
# Mink lung cells were prepared as described in Example 1. Cells were then infected with HSV-1 (originally from clinical specimens but passaged once in tissue culture so virus content is assured). The HSV-1 culture fluid was diluted 1:1000 before use for inoculation. In each shell vial, 0.2 ml of inoculum was used. After centrifuging for 45 minutes at 700×g at 23° C., 0.5 ml of Opti-MEM with 2% fetal calf serum was added to each vial and incubated overnight at 37° C. The following day, the cytopathic effect of the inoculated culture was observed under light microscope. The results are reported in Table 2 and are from the average of two shell vials.
# [3] = test system: CMV in mink lung cells (ATCC No. CCL64); assay: CMV shell vial culture in NaB-treated mink lung cells, immunofluorescent staining of IE antigen, count of stained nuclei; assay type: cell-based; conditions: for # of Foci (average # of stained nuclei counted from three shell vials): 80 mM sodium butyrate, mink lung
# [4] = test system: CMV in MRC-5 cells; assay: CMV shell vial culture in NaB-treated MRC-5 cells, immunofluorescent staining, count of stained nuclei; assay type: cell-based, human; conditions: for counts of positive stained nuclei from 2 shell vials: 80 mM sodium butyrate 24 hours before infection, MRC-5, cell age 2 days; for MRC-5 cells # of stained nuclei: 2 mM CaCl2, 1% DMSO, 10^-5M dexamethasone after infection
# Description: as §2
# After fixing, the cells are stained by adding 100 μl of CMV monoclonal antibody (mAb), incubated at 37° C. for 45 minutes and then rinsed with PBS. The CMV mAb used is E-13 monoclonal antibody against immediate early (IE) antigen of CMV. This antibody is used as a primary antibody in the first step of staining and is available from Accurated Chemical and Scientific Co., Westbury, N.Y. After the first staining step 100 μl of biotin which is conjugated with antimouse IgG is added followed by additional incubation at 37° C. for 45 minutes. The biotin complex is available from Boerhinger Mannheim Co., Indianapolis, Ind. The cells are rinsed again with PBS after incubation and then incubated with 100 μl of streptavidin conjugated with fluorescein isothiocyanate (FITC) for 45 minutes at 37° C. The streptavidin complex is also available from Boerhinger Mannheim Co., Indianapolis, Ind. After a final rinse with PBS, a coverslip removed from the shell vial is mounted on the slide which is then examined under a fluorescence equipped microscope manufactured in Germany by Carl Zeiss, Inc., and available from W. Nuhsbaum, McHenry, II. The specific apple-green stained nuclei were counted. The results are reported in Table 1 as positive stained nuclei as an average of four shell vials.
# Conventionally, human embryonic lung (HEL) fibroblast cells, such as the MRC-5 cell line which is available from Diagnostic Hybrids, Inc., Athens, Ohio, are used worldwide for CMV culture and viral isolation.
# These examples were prepared using the same procedure as Example 1, except that the concentration of NaB used was varied and both mink lung cells and MRC-5 cells were used. Also, the MRC-5 were treated with NaB before infection and 2 mM CaCl2, 1% DMSO and 10^−5M dexamethasone after infection. Table 3 indicates the concentration of NaB used and the results obtained.
# (§3) These examples used the same procedure as Example 1 for CMV growth except that the age of the cells were varied, the cells were treated with 80 mM sodium butyrate 24 hours before infection, and the MCR-5 cells were treated 2 mM calcium chloride (CaCl2), 1% dimethyl sulfoxide (DMSO)and 10^−5M dexamethasone after infection.
# as §3, with “MRC-5” for “MCR-5”, “(DMSO), and” for “(DMSO)and”, “infection. The cell age is measured as the time after seeding of the cells in the shell vial.” for “infection.”
smiles,measurement,setting,value
"CCCC(=O)[O-].[Na+] [NaB, sodium butyrate]",effect on susceptibility of mink lung cells to CMV infection at different cell age (in words),"[1]; 80 mM NaB, cell age 2 to 7 days, Table 5",enhanced the susceptibility
same,Treated: average # of nuclei staining from three shell vials,[1]; cell age 2 days,123*
same,Treated: average # of nuclei staining from three shell vials,[1]; cell age 3 days,121
same,Treated: average # of nuclei staining from three shell vials,[1]; cell age 5 days,78
same,Treated: average # of nuclei staining from three shell vials,[1]; cell age 7 days,30
same,counts of positive stained nuclei from 2 shell vials,"[1]; cell age 2 days, inoculum 10^-0 (no dilution)",232/220
same,counts of positive stained nuclei from 2 shell vials,"[1]; cell age 2 days, inoculum 10^-1 (1:10 dilution)",44/52
same,counts of positive stained nuclei from 2 shell vials,"[1]; cell age 2 days, inoculum 10^-2 (1:100 dilution)",5/2
same,counts of positive stained nuclei from 2 shell vials,"[1]; cell age 3 days, inoculum 10^-0 (no dilution)",242/309
same,counts of positive stained nuclei from 2 shell vials,"[1]; cell age 3 days, inoculum 10^-1 (1:10 dilution)",47/43
same,counts of positive stained nuclei from 2 shell vials,"[1]; cell age 3 days, inoculum 10^-2 (1:100 dilution)",1/2
same,# of Foci (average # of stained nuclei counted from three shell vials),[1]; time of treatment 4 hours before CMV infection,234
same,# of Foci (average # of stained nuclei counted from three shell vials),[1]; time of treatment 6 hours before CMV infection,276
same,# of Foci (average # of stained nuclei counted from three shell vials),[1]; time of treatment 18 hours before CMV infection,360*
same,response of mink lung cells to NaB treatment versus NaB treated MRC-5 cells (in words),"[1]; CMV infection, Table 3",better response
same,# positive stained nuclei,"[1]; NaB 5 mM, 16 to 24 hours before CMV inoculation, mink lung cells",22
same,Mink lung cells # of stained nuclei,[1]; NaB 10 mM before CMV infection,7 and 9
same,# positive stained nuclei,"[1]; NaB 10 mM before CMV inoculation, mink lung cells",30
same,Mink lung cells # of stained nuclei,[1]; NaB 20 mM before CMV infection,12
same,# positive stained nuclei,"[1]; NaB 20 mM before CMV inoculation, mink lung cells",38
same,Mink lung cells # of stained nuclei,[1]; NaB 40 mM before CMV infection,12 and 23
same,# positive stained nuclei,"[1]; NaB 40 mM before CMV inoculation, mink lung cells",71
same,Mink lung cells # of stained nuclei,[1]; NaB 80 mM before CMV infection,26 and 32
same,# positive stained nuclei,"[1]; NaB 80 mM before CMV inoculation, mink lung cells",85
same,increase in number of stained cells as compared with untreated mink lung cells,"[1]; NaB 80 mM, CMV, mink lung cells",about 10 fold
same,sensitivity for CMV isolation and detection versus MRC-5 cells (in words),"[1]; NaB treated mink lung cells, Table 1",far superior sensitivity
same,optimum concentration for growth of CMV in mink lung cells,[1]; Table 1,about 80 mM
same,virus detection at high dilution of inoculum (in words),"[1]; mink lung cells treated with NaB 80 mM, Table 4",the virus is still detected
same,cpe = foci of cytopathic effect,"[2]; NaB 2.5 mM, 16 to 24 hours before HSV-1 infection (1:1000)",18
same,cpe = foci of cytopathic effect,[2]; NaB 5.0 mM before HSV-1 infection,20
same,cpe = foci of cytopathic effect,[2]; NaB 10.0 mM before HSV-1 infection,22
same,cpe = foci of cytopathic effect,[2]; NaB 20 mM before HSV-1 infection,12
same,sensitivity for HSV isolation and detection versus RK cells (in words),"[2]; NaB treated mink lung cells, Table 2",comparable sensitivity
same,# of Foci (average # of stained nuclei counted from three shell vials),[3]; time of treatment 2 hours before CMV infection,126
same,# of Foci (average # of stained nuclei counted from three shell vials),[3]; time of treatment 8 hours before CMV infection,306
same,enhancement of CMV expression,[3]; 2 hour treatment of mink lung cells with NaB (80 mM),more than a two fold enhancement
same,time of treatment required for optimum enhancement of CMV expression,"[3]; mink lung cells, 80 mM NaB",at least 8 hours
same,Treated: average # of nuclei staining from three shell vials,"[4]; 80 mM sodium butyrate 24 hours before CMV infection, MRC-5, cell age 4 days, CaCl2, DMSO, dexamethasone after infection",4
same,counts of positive stained nuclei from 2 shell vials,"[4]; CaCl2, DMSO, dexamethasone after infection, inoculum 10^-0 (no dilution)",39/29
same,counts of positive stained nuclei from 2 shell vials,"[4]; CaCl2, DMSO, dexamethasone after infection, inoculum 10^-1 (1:10 dilution)",3/1
same,counts of positive stained nuclei from 2 shell vials,"[4]; CaCl2, DMSO, dexamethasone after infection, inoculum 10^-2 (1:100 dilution)",0/0
same,MRC-5 cells # of stained nuclei,[4]; NaB 10 mM before CMV infection,2 and 3
same,MRC-5 cells # of stained nuclei,[4]; NaB 20 mM before CMV infection,2
same,MRC-5 cells # of stained nuclei,[4]; NaB 80 mM before CMV infection,7 and 6
